Results published in the NIST ThermoML archive (doi:10.1016/j.fluid.2010.06.019).

Conditions: Liquid, Ebulliometric method (Recirculating still)

CC(C)(C)CO [2,2-dimethyl-1-propanol]
Conditions | vapor or sublimation pressure [kPa]
345.9 K | 20.26
350 K | 24.53
353.97 K | 29.35
357.84 K | 34.76
361.57 K | 40.7
365.36 K | 47.56
371.31 K | 60.19
377 K | 74.65
383.15 K | 93.23
384.84 K | 98.94

CCCCCCCCCCCCCCO [1-tetradecanol]
Conditions | vapor or sublimation pressure [kPa]
479.42 K | 8.319
487.56 K | 11.05
494.5 K | 13.89
500.44 K | 16.78
506.63 K | 20.26
513.01 K | 24.53
513.07 K | 24.53
519.11 K | 29.35
519.18 K | 29.35

CCCCCCO [hexan-1-ol]
Conditions | vapor or sublimation pressure [kPa]
366.67 K | 8.323
372.64 K | 11.06
377.56 K | 13.87
381.8 K | 16.77
381.81 K | 16.77
386.17 K | 20.26
390.77 K | 24.54
390.78 K | 24.54
395.23 K | 29.35
399.57 K | 34.77
403.73 K | 40.7
407.98 K | 47.57
414.61 K | 60.2
420.99 K | 74.69
427.85 K | 93.19
427.9 K | 93.26
429.52 K | 98.12
429.54 K | 98.16
431.85 K | 105.46
432.25 K | 106.75
432.32 K | 106.98

CCCCCCCCO [octan-1-ol]
Conditions | vapor or sublimation pressure [kPa]
397.32 K | 8.355
403.71 K | 11.1
409.14 K | 13.95
413.79 K | 16.83
418.61 K | 20.33
418.62 K | 20.33
418.63 K | 20.33
423.7 K | 24.62
428.65 K | 29.45
433.49 K | 34.89
438.12 K | 40.83
438.14 K | 40.83
442.88 K | 47.73
450.34 K | 60.37
457.52 K | 74.88
465.25 K | 93.42
465.29 K | 93.54

CCCCCCCO [heptan-1-ol]
Conditions | vapor or sublimation pressure [kPa]
382.3 K | 8.324
388.34 K | 11.05
388.36 K | 11.05
393.65 K | 13.89
393.67 K | 13.89
398 K | 16.77
402.68 K | 20.25
407.45 K | 24.53
407.46 K | 24.54
412.21 K | 29.34
412.22 K | 29.35
416.72 K | 34.76
416.78 K | 34.76
421.2 K | 40.69
425.69 K | 47.55
425.77 K | 47.57
432.77 K | 60.19
439.55 K | 74.66
446.78 K | 92.98
446.82 K | 93.13
446.87 K | 93.24
448.6 K | 98.12
448.63 K | 98.2
450.73 K | 104.37
452.84 K | 110.87
452.97 K | 111.28
